{"source": "paper PMC6321321", "about": "(Pharmaceutics, 2018)", "key": {"[1]": {"assay": "In situ closed ileum loop absorption of dextrans and peptide drugs with or without L-tryptophan", "experimental": "Additional i.p. injections of sodium pentobarbital (12.5 mg/kg) were administered every 1 h to maintain anesthesia. The ileum was exposed following a small midline incision made carefully in the abdomen. Its proximal to ileocecal junction segments (length = 10 cm) were cannulated at both ends using polypropylene tubing and ligated securely to prevent fluid loss. To wash out the intestinal contents, PBS warmed to 37 °C was circulated through the cannula at 5.0 mL/min for 4 min using an infusion pump. The cannulation tubing was removed, the segments were closed tightly and returned carefully to their original location inside the peritoneal cavity. Rats were kept on the board at 37 °C for an additional 30 min to calm biological reactions such as elevated blood glucose levels resulting from the stress imposed by surgery. […] To examine dose dependency, the final concentrations of tryptophan were adjusted to 4, 8, 16 and 32 mM. […]\nDuring the experiment, 0.25 mL blood aliquots were taken from the jugular vein at 0, 5, 10, 15, 30, 60, 120 and 180 min after dosing. […] The plasma concentrations of FDs were measured with a microplate fluorimeter (Synergy HT, BioTek Instruments Inc., Winooski, VT, USA) at excitation and emission wavelengths of 485 and 528 nm, respectively."}, "Caco-2 cell monolayers [2]": {"test_system": "Caco-2 cell monolayers", "assay": "TEER measurement of Caco-2 monolayer", "assay_type": "cell-based, human", "details": "37 °C, N=3", "experimental": "In preparation for the assays, the cell membranes were allowed to equilibrate for 30 min in transport buffer; HBSS (pH 7.4) with 0.001% MC was added to the apical (0.5 mL) and basal (1.5 mL) chambers of the transwell.\nThe TEER of the Caco-2 monolayer was measured to confirm cell growth and differentiation on the insert filter of the transwell using a Millicell ERS-2 (Millipore Corp., Bedford, MA, USA). Before seeding the Caco-2 cells, the electrical resistance of the insert filter in the medium was measured and subtracted from the total electrical resistance determined for the monolayer to calculate the intrinsic TEER of the monolayer. The TEER of the monolayer was measured at the end of the 2 h incubation to detect any negative effects of the applied L-tryptophan on the intercellular tight junctions. The TEER is expressed as a percentage calculated by dividing the TEER value (Ω cm^2) at 2 h by the initial value."}, "[3]": {"assay": "In situ closed ileum loop administration study: insulin co-administered with additives", "details": "in situ rat ileal loop; for Effect on the intestinal absorption of insulin (in words): insulin 50 IU/kg co-administered with additive at 32 mM, N=3-8", "experimental": "Additional i.p. injections of sodium pentobarbital (12.5 mg/kg) were administered every 1 h to maintain anesthesia. The ileum was exposed following a small midline incision made carefully in the abdomen. Its proximal to ileocecal junction segments (length = 10 cm) were cannulated at both ends using polypropylene tubing and ligated securely to prevent fluid loss. To wash out the intestinal contents, PBS warmed to 37 °C was circulated through the cannula at 5.0 mL/min for 4 min using an infusion pump. The cannulation tubing was removed, the segments were closed tightly and returned carefully to their original location inside the peritoneal cavity. Rats were kept on the board at 37 °C for an additional 30 min to calm biological reactions such as elevated blood glucose levels resulting from the stress imposed by surgery. […] To examine dose dependency, the final concentrations of tryptophan were adjusted to 4, 8, 16 and 32 mM. In the comparison study with three hydrophobic amino acids or metabolite of L-tryptophan, the final concentrations of L-isoleucine, L-proline, L-phenylalanine and serotonin were 32 mM. In the study examining the synergistic effect of L-arginine and L-tryptophan, the final concentration of L-arginine was fixed at 40 mM.\nDuring the experiment, 0.25 mL blood aliquots were taken from the jugular vein at 0, 5, 10, 15, 30, 60, 120 and 180 min after dosing. The tuberculin syringes (1 mL, Terumo Corp., Tokyo, Japan) were heparinized by the standard procedure of coating the syringe wall with aspirated heparin and then expelling all the heparin. […] The plasma concentrations of FDs were measured with a microplate fluorimeter (Synergy HT, BioTek Instruments Inc., Winooski, VT, USA) at excitation and emission wavelengths of 485 and 528 nm, respectively."}, "rat ileal segments": {"test_system": "rat ileal segments", "assay": "In situ LDH leakage from rat ileal segments", "assay_type": "in vivo", "details": "rat ileal loop; insulin 50 IU/kg with L-tryptophan 16 and 32 mM; fluid collected 60 min after administration; N=3; positive control 5% sodium taurodeoxycholate", "quoted_text": "(§1) To assess the cytotoxic effects of L-tryptophan, the integrity of the cell membrane after treatment with the CPPs was examined by measuring the lactate dehydrogenase (LDH) released from the cytoplasm under both in vitro and in situ conditions.\nFor the trial with the highest concentration of L-tryptophan (50 mM), L-arginine (40 mM) was added as a solubilizing agent. For this test, 5% sodium taurodeoxycholate was used as a positive control. At 60 min after administration, the ileal loop was washed with 5.0 mL of PBS and then intestinal fluid was collected. After adjusting the collected intestinal fluid to a total volume of 6.0 mL with PBS, the activity of LDH (Unit) leaked into the intestinal fluid was determined using an LDH kit (Promega Corp.)."}, "Caco-2 cells [4]": {"test_system": "Caco-2 cells", "assay": "Cell viability assay (WST-8, CCK-8)", "assay_type": "cell-based, human", "details": "completed DMEM, 600–2400 μM, 2 h then 3 h with CCK-8, N=6-11", "quoted_text": "To examine the cellular viability of Caco-2 cells exposed to L-tryptophan, a WST-8 assay was performed with Cell Counting Kit-8 (CCK-8, Dojindo Laboratories, Kumamoto, Japan). The Caco-2 cells were grown in 96-well plates with a 0.33 cm^2 culture area (Nippon Becton Dickinson) to a density of 3.0 × 10^4 cells/cm^2 and then grown in 100 μL of completed DMEM for 3 or 4 days. In this assay, the completed DMEM was used in place of the incubation buffer to prevent the possible loss of cell viability during total 5 h incubation in HBSS. First, 10 μL of L-tryptophan stock solution (eleven times concentration) or transport buffer was added to 100 μL of completed DMEM and the cells were incubated with various concentrations of L-tryptophan (600–2400 μM) for 2 h. Then, 10 μL of CCK-8 reagent was added to the wells and the cells were incubated for an additional 3 h to allow for the reductive reaction of WST-8. The resulting absorbances of the incubated solution in the wells were read with a microplate reader (Synergy HT, BioTek Instruments Inc.) at a wavelength of 450 nm. In this assay, 0.8% of Triton X-100 was used as a positive control, same as the LDH assay."}, "insulin": {"molecular_target": "T1, insulin (Homo sapiens, UniProt P01308)", "T1 construct": "purchased Wako Pure Chemical Industries, Ltd. (Osaka, Japan)", "T1 sequence (P01308 25-54 limits assumed)": "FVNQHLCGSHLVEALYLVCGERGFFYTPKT", "T1 sequence (P01308 90-110 limits assumed)": "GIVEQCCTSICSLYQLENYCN", "assay": "SPR-based binding assay on immobilized insulin", "experimental": "Reference surfaces were prepared by amine coupling activation followed by immediate deactivation. […] At the end of each cycle, the surface was regenerated by a 30 s injection of 1 M NaCl. […] Each sensorgram was determined by subtracting nonspecific binding on the surface of the reference flow cell from total binding on the immobilized-insulin surface."}, "Caco-2 cells [5]": {"test_system": "Caco-2 cells", "assay": "In vitro LDH leakage", "assay_type": "cell-based, human", "details": "HBSS pH 7.4 with 0.001% MC, 300–2400 μM, 120 min, 37 °C, relative to 0.8% Triton X-100, N=3", "quoted_text": "as §1\nIn the in vitro assay, the Caco-2 cells were grown in 24-well plates with a 1.88 cm^2 culture area (Nippon Becton Dickinson) at the density of 1.0 × 10^5 cells/cm^2 and then grown in completed DMEM for 3 or 4 days. Before the addition of L-tryptophan, cell membranes were allowed to equilibrate in 0.5 mL of assay buffer for 30 min. HBSS containing 0.001% MC (pH 7.4) was added to the wells as the transport buffer. After a 30 min pre-incubation with transport buffer, the assay was initiated by replacing 50 μL of transport buffer with 50 μL of L-tryptophan stock solution (ten times concentration) or transport buffer. […] The incubation buffer was collected and LDH released from the cytoplasm into the incubation buffer was determined using a CytoTox 96 Non-Radioactive Cytotoxicity Assay kit (Promega Corp., Madison, WI, USA). Cytotoxicity was expressed as the percentage calculated by dividing the absorbance of the vehicle (HBSS) or the L-tryptophan-treated sample by that of a sample treated with 0.8% Triton X-100, according to the instructions of assay kit."}, "[6]": {"assay": "In vivo oral administration study, blood glucose levels", "details": "mice fasted 24 h; oral gavage insulin 50 IU/kg with L-tryptophan 32 mM (100 μL); blood glucose 0-360 min; N=6-8", "quoted_text": "Blood glucose levels were measured (One Touch Ultra View, Johnson & Johnson K.K., Tokyo, Japan) by collection of blood (one drop) from a small cut in the tail vein at t = 0 (prior to dosing), 15, 30, 60, 120, 180, 240, 300 and 360 min after administration. Blood glucose levels are depicted as percentage of the initial value in same mouse. Mice were trained with oral dosing and tail cutting at 24 h and 60 min prior to actual drug administration to avoid the unexpected elevation of blood glucose levels during experiments."}, "Caco-2 cell monolayers [7]": {"test_system": "Caco-2 cell monolayers", "assay": "Transcellular transport assay: insulin permeation through Caco-2 monolayer", "details": "Caco-2 transwell, apical to basal, insulin 15 μM co-incubated with additive 2.4 or 16 mM, HBSS pH 7.4, 2 h, 37 °C; N=3", "quoted_text": "For TEER measurement, Caco-2 cells were grown in 12-well transwell plates with a 1.13 cm^2 culture area (collagen-coated polytetrafluoroethylene (PTFE) membrane with 0.4 μm pore size, Corning Inc., Corning, NY, USA). The cells were cultured to a density of 1.0 × 10^5 cells/cm^2. […] The culture medium was changed every second day and the electrical resistance was monitored by the method described below. Each well consisted of apical (top) and basal (bottom) chambers, which were separated by a collagen-coated polytetrafluoroethylene membrane with a pore size of 0.4 μm and a filter area of 1.12 cm^2.\nIn preparation for the assays, the cell membranes were allowed to equilibrate for 30 min in transport buffer; HBSS (pH 7.4) with 0.001% MC was added to the apical (0.5 mL) and basal (1.5 mL) chambers of the transwell. […] During the incubation, the Caco-2 monolayer was kept at physiological temperature (37 °C)."}, "[8]": {"details": "insulin co-administered with additive at 40 mM; cited from earlier work"}, "Caco-2 cell monolayers [9]": {"test_system": "Caco-2 cell monolayers", "details": "9.6 mM (equivalent to 4.2 mg/kg in the animal study) added to transwell; cited from earlier work"}}}
{"compound": "GLP-1", "values": [{"measurement": "AUC, −L-Tryptophan", "setting": "[1]; rat, in vivo, 1.25 mg/kg", "result": "1.35 ± 0.27", "unit": "ng·h/mL"}]}
{"compound": "CCCCCCCCCC(=O)[O-].[Na+]", "note": "[C10, sodium caprate]", "values": [{"measurement": "Change in TEER of Caco-2 cell monolayers", "setting": "Caco-2 cell monolayers [2]; typical enhancer as positive control, concentration not given, 2 h", "result": "significant reduction in TEER"}]}
{"compound": "RQIKIWFQNRRMKWKK [L-penetratin]", "values": [{"measurement": "Onset of action / of insulin absorption after co-administration", "setting": "[3]; insulin 50 IU/kg co-administered with L-tryptophan 8-32 mM, L-penetratin 0.5 mM or D-tryptophan 16 and 32 mM, time after administration", "result": 15, "unit": "min"}]}
{"compound": "N[C@@H](Cc1c[nH]c2ccccc12)C(=O)O", "note": "[L-Tryptophan, L-tryptophan]", "values": [{"measurement": "Leakage of LDH into intestinal fluid (in situ)", "setting": "rat ileal segments", "result": "negligible"}, {"measurement": "Cell viability (WST-8)", "setting": "Caco-2 cells [4]", "result": "no decrease in cell viability"}, {"measurement": "Binding to immobilized insulin (SPR sensorgram)", "setting": "insulin; CM5 chip, analyte 2–200 μM, HBSS pH 7.4 with 0.001% MC, 25 °C, 90 s injection", "result": "do not show an increase"}, {"measurement": "Release of LDH into the media (in vitro)", "setting": "Caco-2 cells [5]", "result": "no release of LDH"}, {"measurement": "Hypoglycemic reaction / oral absorption of insulin (blood glucose levels)", "setting": "[6]", "result": "could enhance the oral absorption of insulin"}, {"measurement": "Change in TEER of Caco-2 cell monolayers", "setting": "Caco-2 cell monolayers [2]; apical, insulin 15 μM with additive 600–16,000 μM, HBSS pH 7.4, 2 h, TEER at 120 min vs initial", "result": "No change in the TEER values"}]}
{"compound": "NCCc1c[nH]c2ccc(O)cc12", "note": "[Serotonin, serotonin]", "values": [{"measurement": "Permeation of insulin through Caco-2 monolayer", "setting": "Caco-2 cell monolayers [7]", "result": "no stimulatory effect on the permeation of insulin"}, {"measurement": "Change in TEER of Caco-2 cell monolayers", "setting": "Caco-2 cell monolayers [2]; apical, insulin 15 μM with additive 2.4 or 16 mM, HBSS pH 7.4, 2 h", "result": "increased the TEER"}, {"measurement": "Effect on the intestinal absorption of insulin (in words)", "setting": "[3]", "result": "could enhance the intestinal absorption of insulin"}]}
{"compound": "O=C(O)[C@@H]1CCCN1", "note": "[L-proline]", "values": [{"measurement": "Effect on the intestinal absorption of insulin (in words)", "setting": "[3]", "result": "no stimulatory effect on insulin absorption"}]}
{"compound": "CC[C@H](C)[C@H](N)C(=O)O", "note": "[L-isoleucine]", "values": [{"measurement": "Effect on the intestinal absorption of insulin (in words)", "setting": "[3]", "result": "no stimulatory effect on insulin absorption"}]}
{"compound": "N=C(N)NCCC[C@H](N)C(=O)O", "note": "[L-arginine]", "values": [{"measurement": "Binding with insulin", "setting": "insulin; data not shown", "result": "showed no binding with insulin"}, {"measurement": "Tmax of insulin absorption after co-administration", "setting": "[8]", "result": "12.8 ± 0.9", "unit": "min"}, {"measurement": "Opening of tight junctions in Caco-2 cell monolayers", "setting": "Caco-2 cell monolayers [9]", "result": "no opening of tight junctions was observed"}, {"measurement": "Effect on the intestinal absorption of peptide drugs (GLP-1, Exendin-4)", "setting": "[1]; data not shown", "result": "had no effect on the intestinal absorption of such peptide drugs"}]}
{"compound": "N[C@@H](Cc1ccccc1)C(=O)O", "note": "[L-phenylalanine]", "values": [{"measurement": "Effect on the intestinal absorption of insulin (in words)", "setting": "[3]", "result": "no stimulatory effect on insulin absorption"}]}
